Test results from the supplement of paper PMC13380429.

What was measured:
Conditions in all cases: 72 h
Caco-2 [1] = assay: cell viability relative to DMSO; higher = less toxic
Calu-3 [2] = assay: as above
HepG2 [3] = assay: as above
U2OS [4] = assay: as above
Vero E6 [5] = assay: as above
Caco-2 [6] = assay: relative viability EC50 (midpoint between 100% and the lowest measured viability); higher = less toxic
Calu-3 [7] = assay: as above
HepG2 [8] = assay: as above
U2OS [9] = assay: as above
Vero E6 [10] = assay: as above
Caco-2 [11] = assay: drug sensitivity score (DSS) for viability; higher = more toxic; extreme values may be limits of the assay
Calu-3 [12] = assay: as above
HepG2 [13] = assay: as above
U2OS [14] = assay: as above
Vero E6 [15] = assay: as above

| SMILES | cell viability (Caco-2 [1]; 1 nM) [%] | cell viability (Caco-2 [1]; 10 nM) [%] | cell viability (Caco-2 [1]; 100 nM) [%] | cell viability (Caco-2 [1]; 1000 nM) [%] | cell viability (Caco-2 [1]; 10000 nM) [%] | cell viability (Calu-3 [2]; 1 nM) [%] | cell viability (Calu-3 [2]; 10 nM) [%] | cell viability (Calu-3 [2]; 100 nM) [%] | cell viability (Calu-3 [2]; 1000 nM) [%] | cell viability (Calu-3 [2]; 10000 nM) [%] | cell viability (HepG2 [3]; 1 nM) [%] | cell viability (HepG2 [3]; 10 nM) [%] | cell viability (HepG2 [3]; 100 nM) [%] | cell viability (HepG2 [3]; 1000 nM) [%] | cell viability (HepG2 [3]; 10000 nM) [%] | cell viability (U2OS [4]; 1 nM) [%] | cell viability (U2OS [4]; 10 nM) [%] | cell viability (U2OS [4]; 100 nM) [%] | cell viability (U2OS [4]; 1000 nM) [%] | cell viability (U2OS [4]; 10000 nM) [%] | cell viability (Vero E6 [5]; 1 nM) [%] | cell viability (Vero E6 [5]; 10 nM) [%] | cell viability (Vero E6 [5]; 100 nM) [%] | cell viability (Vero E6 [5]; 1000 nM) [%] | cell viability (Vero E6 [5]; 10000 nM) [%] | relative viability EC50 (Caco-2 [6]) [µM] | relative viability EC50 (Calu-3 [7]) [µM] | relative viability EC50 (HepG2 [8]) [µM] | relative viability EC50 (U2OS [9]) [µM] | relative viability EC50 (Vero E6 [10]) [µM] | drug sensitivity score (Caco-2 [11]) | drug sensitivity score (Calu-3 [12]) | drug sensitivity score (HepG2 [13]) | drug sensitivity score (U2OS [14]) | drug sensitivity score (Vero E6 [15]) |
| --- | --- | --- | --- | --- | --- | --- | --- | --- | --- | --- | --- | --- | --- | --- | --- | --- | --- | --- | --- | --- | --- | --- | --- | --- | --- | --- | --- | --- | --- | --- | --- | --- | --- | --- | --- |
| OC[C@H]1O[C@@H](OCCc2ccc(O)cc2)[C@H](O)[C@@H](O)[C@@H]1O [salidroside] | 103 | 92.2 | 92.3 | 106 | 104 | 96 | 106 | 102 | 87.2 | 113 | 91.4 | 97 | 109 | 87 | 104 | 102 | 93.9 | 96 | 103 | 101 | 95.5 | 94.8 | 93.2 | 99.8 | 107 | > 10 | > 10 | > 10 | > 10 | > 10 | 0 | 0 | 0 | 0 | 0 |
| C[C@H](Cc1cc2c(c(C(N)=O)c1)N(CCCO)CC2)NCCOc1ccccc1OCC(F)(F)F [silodosin] | 91.6 | 93.1 | 106 | 92 | 88.7 | 96 | 87.2 | 97 | 101 | 93.6 | 95 | 97.7 | 103 | 102 | 99.9 | 101 | 93.5 | 98.9 | 95.6 | 97.6 | 93.9 | 102 | 97.1 | 101 | 108 | > 10 | > 10 | > 10 | > 10 | > 10 | 0 | 0 | 0 | 0 | 0 |
| CCOc1ccc(Cc2cc([C@@H]3O[C@H](SC)[C@@H](O)[C@H](O)[C@H]3O)ccc2Cl)cc1 [sotagliflozin] | 98.3 | 102 | 100 | 92.5 | 91.1 | 91.4 | 94.1 | 112 | 97.7 | 99.8 | 90.3 | 101 | 98.4 | 101 | 91.8 | 97.7 | 95 | 100 | 97.6 | 95.4 | 94.6 | 97.2 | 95.4 | 95.8 | 102 | > 10 | > 10 | > 10 | > 10 | > 10 | 0 | 0 | 0 | 0 | 0 |
| CC(=O)N(c1onc(C)c1C)S(=O)(=O)c1ccc(N)cc1 [sulfisoxazole-acetyl] | 109 | 106 | 110 | 102 | 90.9 | 96.7 | 102 | 93.6 | 102 | 102 | 96.9 | 105 | 114 | 103 | 97.4 | 101 | 97.5 | 101 | 97.7 | 98.7 | 104 | 107 | 103 | 96.9 | 98.8 | > 10 | > 10 | > 10 | > 10 | > 10 | 0 | 0 | 0 | 0 | 0 |
| CC1=C(CC(=O)O)c2cc(F)ccc2/C1=C\c1ccc([S+](C)[O-])cc1 (stereo not given) [sulindac] | 96 | 100 | 103 | 94.9 | 85.1 | 102 | 113 | 96.5 | 98 | 101 | 117 | 90.2 | 93.3 | 84 | 108 | 101 | 99.2 | 97.4 | 101 | 97.4 | 105 | 102 | 103 | 92.9 | 94.4 | > 10 | > 10 | > 10 | > 10 | > 10 | 0.6 | 0 | 0 | 0 | 0 |
| C=CC[C@@H]1/C=C(\C)C[C@H](C)C[C@H](OC)[C@H]2O[C@@](O)(C(=O)C(=O)N3CCCC[C@H]3C(=O)O[C@H](/C(C)=C/[C@@H]3CC[C@@H](O)[C@H](OC)C3)[C@H](C)[C@@H](O)CC1=O)[C@H](C)C[C@@H]2OC [tacrolimus] | 99.8 | 101 | 88.8 | 103 | 93.8 | 99.1 | 103 | 96.6 | 100 | 107 | 108 | 99.6 | 103 | 98.2 | 104 | 96.9 | 102 | 98.7 | 104 | 98 | 96.3 | 91.6 | 88.5 | 90.3 | 108 | > 10 | > 10 | > 10 | > 10 | > 10 | 0 | 0 | 0 | 0 | 0 |
| CN(C(=O)c1ccc(F)cc1C(F)(F)F)C1CCN(c2nnc(-c3ccnn3C)c3ccccc23)CC1 [taladegib] | 96.9 | 92.2 | 87.7 | 106 | 92.8 | 93.1 | 93.7 | 92.8 | 109 | 99.4 | 120 | 113 | 111 | 93.5 | 93.2 | 94.9 | 101 | 93 | 101 | 95.6 | 106 | 99.5 | 102 | 90.9 | 91.4 | > 10 | > 10 | > 10 | > 10 | > 10 | 0 | 0 | 0 | 0 | 0 |
| Cn1c(C#N)ccc1-c1ccc2c(c1)C(C)(C)OC(=S)N2 [tanaproget] | 98 | 101 | 100 | 94.8 | 75.4 | 105 | 106 | 101 | 108 | 88.9 | 106 | 109 | 95.8 | 87 | 24.7 | 102 | 103 | 102 | 103 | 94.9 | 102 | 103 | 98.2 | 105 | 107 | > 10 | > 10 | 1.86 | > 10 | > 10 | 1.7 | 0 | 6.3 | 0 | 0 |
| O=C1c2c(O)cc(O)cc2O[C@H](c2ccc(O)c(O)c2)[C@H]1O [taxifolin] | 91.5 | 106 | 105 | 104 | 96 | 101 | 110 | 90.1 | 102 | 99.5 | 101 | 94.4 | 98.5 | 100 | 97.5 | 95.2 | 96.5 | 92.9 | 96.2 | 89.9 | 94.4 | 99.4 | 94.2 | 97.6 | 104 | > 10 | > 10 | > 10 | > 10 | > 10 | 0 | 0 | 0 | 0 | 0 |
| CCN(c1cc(-c2ccc(CN3CCOCC3)cc2)cc(C(=O)NCc2c(C)cc(C)[nH]c2=O)c1C)C1CCOCC1 [tazemetostat] | 91.9 | 101 | 98.9 | 101 | 92.6 | 91.2 | 103 | 98.3 | 98 | 104 | 86.1 | 97 | 90.3 | 96.9 | 95.3 | 97.7 | 96.9 | 101 | 102 | 93.8 | 96.2 | 97.7 | 95.2 | 98.9 | 98.9 | > 10 | > 10 | > 10 | > 10 | > 10 | 0 | 0 | 0 | 0 | 0 |
| O=C1C(O)=C(O)C(=O)C(O)=C1O [tetroquinone] | 103 | 99.6 | 96.9 | 104 | 97.6 | 97.3 | 98.2 | 98.1 | 87.1 | 93.3 | 97.9 | 100 | 101 | 106 | 91.7 | 99.9 | 99.5 | 97.8 | 99.8 | 104 | 98.3 | 100 | 97.6 | 96.7 | 95.1 | > 10 | > 10 | > 10 | > 10 | > 10 | 0 | 0 | 0 | 0 | 0 |
| CSc1ccccc1OCC(O)CNC(C)C (stereo not given) [tiprenolol] | 108 | 102 | 93.6 | 83 | 113 | 104 | 106 | 100 | 97.3 | 103 | 98.6 | 92.6 | 102 | 99.9 | 98.5 | 97.9 | 96.2 | 106 | 101 | 99.3 | 100 | 98.5 | 98.6 | 91.8 | 86.7 | > 10 | > 10 | > 10 | > 10 | > 10 | 0 | 0 | 0 | 0 | 0.3 |
| C#Cc1cnc2nc(O)n(C(CC)CC)c2n1 [tirasemtiv] | 90.7 | 92.8 | 103 | 107 | 103 | 95.8 | 98.7 | 103 | 95.7 | 106 | 102 | 113 | 99.4 | 115 | 98.5 | 103 | 100 | 101 | 98.6 | 98.5 | 94.8 | 101 | 93.4 | 96.9 | 106 | > 10 | > 10 | > 10 | > 10 | > 10 | 0 | 0 | 0 | 0 | 0 |
| CCc1ccc(Cc2ccc3c(c2)[C@]2(OC3)O[C@H](CO)[C@@H](O)[C@H](O)[C@H]2O)cc1 [tofogliflozin] | 97.8 | 98.5 | 86.1 | 97 | 90.5 | 90.9 | 92.7 | 108 | 103 | 108 | 106 | 94.3 | 102 | 105 | 95.5 | 97.9 | 96.9 | 97.5 | 98 | 95.5 | 93.9 | 95.6 | 99.4 | 94.6 | 98.4 | > 10 | > 10 | > 10 | > 10 | > 10 | 0 | 0 | 0 | 0 | 0 |
